Assay results: US7951232B2, “Surface coating compositions and methods” (Elevance Renewable Sciences, Inc., priority 2006, dated 2011)

Tests used:
[1] = system: Cladosporium cladosporiodes ATCC 16022; test: Dry film preservative test, growth on PDA agar surface; assay type: cell-based; settings: 0.5% in PDA agar
Method: (§1) The efficacy of 9-decenoic acid and the methyl ester of 9-decenoic acid as a dry film preservative was determined through the incubation of Trichoderma virens ATCC 9645, Cladosporium cladosporiodes ATCC 16022 and Aureobasidium pullulans ATCC 12536 in the presence of varying concentrations of 9-decenoic acid or the methyl ester of 9-decenoic acid on an agar surface.
(§2) Fungal spores were hydrated overnight in 0.1% Tween 80 and then plated on Potato Dextrose Agar (PDA) and incubated at 25-30° C. for 6 days. The spores were washed from the surface with 5 mls of 0.1% Tween 80 and enumerated.
(§3) PDA plates with prepared according to the manufactures instructions through sterilization. The agar was tempered to approximately 50° C. and filter sterilized 9-decenoic acid was added to achieve concentrations of 0.1, 0.5 and 1.0% in the agar. Additionally, one concentration of the methyl ester of 9-decenoic acid (0.5%) was also prepared. The agar was thoroughly mixed and poured into sterile petri plates and allowed to solidify.
(§4) The agar plates were inoculated with the spore solution to achieve 10^2 spores/plate. The plates were incubated at 25-30° C. in Ziploc bags with a wet paper towel to keep the moisture level high. The plates were examined for growth after 4, 7, 16, 24 and 31 days. The percent coverage of growth on the agar surface was recorded at each sample point.

[2] = system: Trichoderma virens ATCC 9645; test: as above; assay type: cell-based; settings: 0.5% in PDA agar
Method: as §1, §2, §3, §4

[3] = system: Aureobasidium pullulans ATCC 12536; test: as above; assay type: cell-based; settings: 0.5% in PDA agar
Method: as §1, §2, §3, §4

[4] = system: Escherichia coli 0157:H7 ATCC 43895; test: MIC and MBC determination in Mueller-Hinton Broth; assay type: cell-based; settings: 37±2° C., 20-24 hours
Method: Efficacy of 9-decenoic acid and the methyl ester of 9-decenoic acid against Pseudomonas aeruginosa ATCC 15442, Escherichia coli 0157:H7 ATCC 43895 and Candida albicans ATCC 10231 was measured through the determination of the minimum inhibitory concentration (MIC) and minimum bacteriocidal concentration (MBC) using the procedures in the Federal Register, June 1994 and the present NCCLS M11-A4 protocol.
Stock cultures of each organism were transferred onto Mueller-Hinton Agar (MHA) plates and incubated for 24±2 hours at 37±2° C. On the day of the test, the top of at least three to five well-isolated colonies were transferred via wire loop to a tube containing 4 to 5 ml of Trypticase Soy Broth (TSB). The TSB culture was incubated for 2 to 6 hours and turbidity was adjusted with sterile saline to achieve the turbidity of the 0.5 McFarland Standard.
The concentrated 9-decenoic acid was diluted 1:40 in Mueller-Hinton Broth (MHB) to yield a 2.5% stock solution. The test solution of the methyl ester of 9-decenoic acid was formulated in the same manner. For each organism, 12 dilutions of the 9-decenoic acid and the methyl ester of 9-decenoic acid in MHB were prepared ranging from 0.2500 to 0.0005%. A 2-ml aliquot of appropriately diluted 9-decenoic acid or the methyl ester of 9-decenoic acid solution was placed in each tube. Each tube was inoculated with 0.05 ml of a 1:10 dilution of one challenge organism. Tubes were incubated at 37±2° C. for 20-24 hours and observed for growth or no growth. […] Controls were run for sterility, viability and organism confirmation. It was determined that all cultures were viable and pure.
The MBC was defined as the concentration of 9-decenoic acid or the methyl ester of 9-decenoic acid that completely eradicated viable organisms from the test system.

[5] = system: Pseudomonas aeroginosa, ATCC 15442; test: Time-Kill Procedure (ASTM), rate of kill; assay type: cell-based, Pseudomonas aeruginosa; settings: all concentrations (0.01, 0.05 and 0.1%), after 10 minutes
Method: (§5) The rate of kill for these organisms upon exposure to 9-decenoic acid was determined using the American Society for Testing and Materials (ASTM) procedure entitled “Standard Test Method for the Assessment of Microbiocidal Activity of Test Materials Using a Time-Kill Procedure”, October 1998. This procedure incorporates the recommendations described in the “Manual of Clinical Microbiology,”5th ed., edited by A. B. Balows et al., ASM, Washington, and is directed by the Federal Register, June 1994.
(§6) Stock cultures were transferred into TSB and incubated for 18-24 hours at 37±2° C. A second transfer was made onto TSA plates and were incubated for 18-24 hours at 37±2° C. The plates were removed from incubation and the bacterial growth washed from the agar surface using Butterfield's Phosphate Buffered Dilution Water (PBDW). The bacterial suspension was adjusted to contain approximately 10^8 Colony Forming Units (CFU)/ml with PBDW using spectrophometric methods extant in the laboratory.
(§7) The concentrated 9-decenoic acid was diluted 1:40 in filter sterilized isopropanol to yield a 2.5% stock solution. Subsequent dilutions to the 9-decenoic acid stock solutions were made with sterile Deionized Water (DI) to achieve concentrations of 0.1%, 0.05%, 0.01%, and 0.001%. The pH was determined for each dilution; pH values ranged from 4.4-4.1. Additionally, the 9-decenoic acid stock solution was adjusted to pH 7 with 1 N NaOH and serially diluted with sterile DI to achieve concentrations of 1.0%, 0.75% and 0.5%.
(§8) Compliant with the ASTM procedure cited, for each challenge microorganism a 9.9 ml aliquot of the prepared 9-decenoic acid suspension was added to a sterile tube. A 0.1 ml aliquot of the standardized inoculum was added to the 9-decenoic acid solution representing the start of the test exposure. The inoculated 9-decenoic acid solution was immediately mixed thoroughly. The inoculated suspension was held at room temperature for 0.5, 2, 5, 7 and 10 minute exposure times for tests run at ˜pH 4. The pH 7 tests were held at room temperature for 0.5 and 2 minutes.
(§9) At each exposure sample time, a 1.0 ml aliquot of the inoculated 9-decenoic acid suspension was transferred to 9.0 ml of D/E Neutralizing Broth. Additional ten-fold serial dilutions were made in PBDW and plated in duplicate on TSA. All plates were incubated for 48 hours at 37±2° C. and visually examined for growth. The plates are enumerated, recorded and log kill determined for each time point.
(§10) The following study controls were conducted: culture purity, neutralizer sterility, initial suspension population, test population, neutralization verification and a negative control using isopropanol. Culture purity was verified by performing a streak plate for isolated colonies on the each culture used. All cultures were determined to be pure based on consistent colony morphology typical for the test organism. The neutralizer sterility was confirmed by no growth in an incubated sample.
(§11) The population of the initial and test culture were determined by serial dilution, plating and enumerating after incubation. The initial suspension were determined to be ≧10^4 CFU/ml. The test culture population was used for calculation of the log reduction achieved at each time point.
(§12) Neutralization effectiveness was verified by a filtration test. For each organism, four tubes were prepared with 9 ml D/E Neutralizing Broth and fewer than 100 CFU/ml of the organism. A 1.0 ml aliquot of prepared 9-decenoic acid was added to each tube. Immediately, the entire contents of 2 tubes were filtered through a filtration apparatus and rinsed with sterile diluent. The remaining 2 tubes were held at room temperature for 30 minutes and then the entire contents were filtered using the same procedure. The filters were aseptically transferred to TSA plates and incubated for 48 hours at 37±2° C. and visually examined for growth.
(§13) This control was inoculated, subcultured and incubated as in the test procedure.

[6] = system: Escherichia coli 0157:H7, ATCC 43895; test: Time-Kill Procedure (ASTM), rate of kill; assay type: cell-based; settings: all concentrations (0.01, 0.05 and 0.1%), after 10 minutes
Method: as §5, §6, §7, §8, §9, §10, §11, §12, §13

[7] = system: Candida albicans, ATCC 10231; test: Time-Kill Procedure (ASTM), rate of kill; assay type: cell-based; settings: all concentrations (0.01, 0.05 and 0.1%), after 10 minutes
Method: as §5, §6, §7, §8, §9, §10, §11, §12, §13

[8] = system: Pediococcus acidolactici ATCC 8042; test: Growth inhibition in MRS medium at various pH levels (OD600); assay type: cell-based, Pediococcus acidilactici; settings: 0.05% w/v (as 9-DA)
Method: (§14) Efficacy of potassium salt of 9-DA were tested at various pH levels against the following: Bacillus cereus ATCC 14579, Pediococcus acidolactici ATCC 8042, Pseudomonas straminea ATCC 33636, and Lactobacillus casei ATCC 334. Stock cultures of each organism were transferred into MRS liquid medium. MRS medium (Difco 288130) was purchased from Becton, Dickinson and Company, Sparks, Md. The efficacy of the potassium salt of 9-DA (K-9-DA) was tested at different concentrations and pH levels, including 6.75 (unadjusted), 7.5, and 8.5. The selected organisms were incubated overnight in 5 ml of MRS medium at 35° C. and 250 rpm. MRS media with K-9-DA was prepared, along with a control of straight media (no antimicrobial added). The antimicrobial agent was added by weight/volume percent to the media. The purity, 99% for K-9-DA, was taken into account. The pH adjustments to 7.5 and 8.5 were done with 50% potassium hydroxide. Filter sterilization was used instead of autoclaving to prevent adverse chemical reactions at higher pH and temperature. The target for initial cell density was 10^5 to 10^6 cfu/ml. According to the McFarland standard, 0.01 OD600 is equivalent to approximately 10^8 cfu/ml. To achieve the proper dilution, 30 μl of overnight culture diluted to 0.01 OD600 was added to the 3 ml of media in each tube. The tubes were incubated at 35° C. with the exception of Pseudomonas strains which were incubated at 30° C. Treatments were all done in duplicate. All strains were shaken at 250 rpm, with the exception of Lactobacillus (because it is anaerobic). OD600 readings were taken at 0, 19, 25.5, 42.5 and 49 hours.
“Percent reduction in growth vs. control” was defined as (1−abs. of treatment/abs. of control)×100.

[9] = system: Lactobacillus casei ATCC 334; test: as above; assay type: cell-based; settings: 0.075% w/v (as 9-DA)
Method: as §14, with “The tubes were incubated at 35° C. with the exception of Pseudomonas strains which were incubated at 30° C. Treatments were all done in duplicate. All strains were shaken at 250 rpm, with the exception of Lactobacillus (because it is anaerobic).” left out, “hours. […]” for “hours.”

[10] = system: microorganisms of Table 15 with the exception of Bacillus licheniformis; test: Growth inhibition in MRS medium (OD600), summary over organisms; assay type: cell-based; settings: all concentrations tested
Method: (§15) Efficacy of the potassium salt of 9-DA was determined through incubation of the following organisms in the presence of varying concentrations of the potassium salt: Pseudomonas straminea ATCC 33636, Bacillus subtilis ATCC 6051, Bacillus licheniformis ATCC 14580, Bacillus cereus ATCC 14579, Pediococcus acidilactici ATCC 8042, and Lactobacillus casei ATCC 334.
(§16) Stock cultures of each organism were transferred into MRS liquid medium. MRS medium (Difco 288130) was purchased from Becton, Dickinson and Company, Sparks, Md.
(§17) The efficacy of different levels of the potassium salt of 9-DA was tested depending on the organism to inhibit the growth of various microorganisms indicated above.
(§18) The selected organisms were incubated overnight in 5 ml of MRS medium at 35° C. and 250 rpm. MRS media with K-9-DA was prepared, along with a control of straight media (no antimicrobial added). The concentrated antimicrobial agents were diluted with the appropriate media required for the respective microorganisms, to reach the required concentrations for the studies as indicated below. The antimicrobial agents were added by weight/volume percent on an ‘as 9-DA’ basis to the media. The purity of the antimicrobial agent (99% for K-9-DA) was taken into account. The pH of the medium was not adjusted. The target for initial cell density was 10^5 to 10^6 cfu/ml. […] OD600 readings were taken at 0, 4, 17, 23 and 47 hours. […]

[11] = system: Bacillus licheniformis ATCC 14580; test: Growth inhibition in MRS medium (OD600); assay type: cell-based; settings: 0.075% w/v 9-DA from K9-DA, pH not adjusted, listed as potassium 9-DA
Method: as §15, §16, §17, §18

Q: With C=CCCCCCCCC(=O)OC [Methyl ester of 9-decenoic acid, methyl ester of 9-decenoic acid] as the compound, how does the “time up to which growth of the culture was significantly inhibited” value [1] read?
A: The value was 4 days.

Q: What about the “Percentage coverage of agar surface” value ([1]; 4 days) of the same compound?
A: Its value is 10%.

Q: And the “Percentage coverage of agar surface” value ([1]; 7 days)?
A: The value was 50%.

Q: What about the “Percentage coverage of agar surface” value ([1]; 16 days) of the same compound?
A: The value was 50%.

Q: And the “Percentage coverage of agar surface” value ([1]; 24 days)?
A: Its value is 50%.

Q: What about the “Percentage coverage of agar surface” value ([1]; 31 days) of the same compound?
A: The value was 50%.

Q: And the “time up to which growth of the culture was significantly inhibited” value [2]?
A: The value was 4 days.

Q: What about the “Percentage coverage of agar surface” value ([2]; 4 days) of the same compound?
A: The value was 60%.

Q: What about the “Percentage coverage of agar surface” value ([2]; 7 days) of the same compound?
A: The value was 95%.

Q: What about the “Percentage coverage of agar surface” value ([2]; 16 days) of the same compound?
A: The value was 100%.

Q: What about the “Percentage coverage of agar surface” value ([2]; 24 days) of the same compound?
A: Its value is 100%.

Q: And the “Percentage coverage of agar surface” value ([2]; 31 days)?
A: Its value is 100%.

Q: What about the “time up to which growth of the culture was significantly inhibited” value [3] of the same compound?
A: Its value is 16 days.

Q: And the “Percentage coverage of agar surface” value ([3]; 4 days)?
A: Its value is 0%.

Q: What about the “Percentage coverage of agar surface” value ([3]; 7 days) of the same compound?
A: Its value is 2.5%.

Q: What about the “Percentage coverage of agar surface” value ([3]; 16 days) of the same compound?
A: The value was 10%.

Q: What about the “Percentage coverage of agar surface” value ([3]; 24 days) of the same compound?
A: The value was 50%.

Q: And the “Percentage coverage of agar surface” value ([3]; 31 days)?
A: The value was 75%.

Q: What about the MIC ([4]; Mueller-Hinton Broth) of the same compound?
A: Its MIC is 0.1250%.

Q: What about the MBC ([4]; no-growth tubes subcultured on TSA) of the same compound?
A: The MBC was 0.1250%.

Q: What about the “log reduction in time kill test” value [5] of the same compound?
A: Its value is under 1 log.

Q: What about the “log reduction in time kill test” value [6] of the same compound?
A: The value was under 1 log.

Q: What about the “log reduction in time kill test” value [7] of the same compound?
A: Its value is under 1 log.

Q: What does the source list for C=CCCCCCCCC(=O)O.[K] [K9-DA, Potassium-9 Decenoic Acid]?
A: % reduction in growth vs. control ([8]; Non-pH adjusted (6.75)): 90.6%; % reduction in growth vs. control ([8]; pH 7.5): 93.2%; % reduction in growth vs. control ([8]; pH 8.5): 95.6%; % reduction in growth vs. control ([9]; Non-pH adjusted (6.75)): 88.4%; % reduction in growth vs. control ([9]; pH 7.5): 91.7%; reduction in growth when compared to controls [10]: ≥ 95%; % reduction in growth vs. control [11]: 88.63%
